Tests used:
[1] = test system: HCV replicon in human hepatoma Huh-7 cell line; test: Anti-HCV replicon assay, EC50 (luciferase luminescence); assay type: cell-based; conditions: Hepatitis C virus, Huh-7, 72 h
How it was run: (§1)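 Cytotoxicity (CC50) read by CellTiter-Glo luminescence after 10 min, and antiviral EC50 by luciferase signal after 30 min lysis with substrate, both at room temperature. Preceding step: 3-day exposure of 6000 Huh-7 HCV replicon cells per well to compound dilution series at 37° C, 5% CO2, in 0.5% DMSO.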

[2] = CC50 assay (CellTiter-Glo) in Huh-7 HCV replicon cells; assay type: cell-based; conditions: human
How it was run: as §1

| SMILES | EC50 [1] [nM] | CC50 at 3 days ([2]; Table 2, 3 days incubation) [nM] | CC50 at 3 days ([2]; Table 1, 3 days incubation) [nM] |
| --- | --- | --- | --- |
| CC(C)Oc1ccc(-c2ccc3nc(NCc4ccc(-n5cccn5)cc4)nc(NCC(F)(F)F)c3n2)cn1 [Example 242, N^2-(4-(1H-pyrazol-1-yl)benzyl)-6-(6-isopropoxypyridin-3-yl)-N^4-(2,2,2-trifluoroethyl)pyrido [3,2-d]pyrimidine-2,4-diamine] | < 100 | 1000 to 10000 | – |
| Cc1nccn1-c1cccc(CNc2nc(NC3(C(F)(F)F)CC3)c3nc(-c4ccc(F)cc4)ccc3n2)c1 [Example 53, N^2-(3-(2-methyl-1H-imidazol-1-yl)benzyl)-6-(4-fluorophenyl)-N^4-(1-(trifluoromethyl)cyclopropyl)pyrido[3,2-d] pyrimidine-2,4-diamine] | 250 to 2000 | 1000 to 10000 | – |
| C#Cc1ccc2nc(NCc3ccc(S(N)(=O)=O)cc3)nc(NCC(F)(F)F)c2n1 [Example 288, 4-((6-ethynyl-4-(2,2,2-trifluoroethylamino)pyrido [3,2-d]pyrimidin-2-ylamino)methyl)benzenesulfonamide] | < 100 | 1000 to 10000 | – |
| COc1nc(N[C@H](C)c2ccc(S(N)(=O)=O)cc2)nc2ccc(C#CC3CC3)nc12 [Example 315, (R)-4-(1-(6-(2-cyclopropyl-ethynyl)-4-methoxypyrido [3,2-d]pyrimidin-2-ylamino)ethyl)benzenesulfonamide] | 250 to 2000 | > 10000 | – |
| Fc1ccc(-c2ccc3nc(NCc4cccc(-n5cccn5)c4)nc(NCC(F)(F)F)c3n2)cc1 [Example 2, 6-(4-Fluoro-phenyl)-N2-(3-pyrazol-1-yl-benzyl)-N4-(2,2,2-trifluoro-ethyl)-pyrido[3,2-d]pyrimidine-2,4-diamine] | < 100 | – | > 25000 |
| COc1ccc(-c2ccc3nc(NCc4ccc(S(N)(=O)=O)cc4)nc(NC4(C(F)(F)F)CC4)c3n2)cc1S(C)(=O)=O [Example 28, 4-{[6-(3-Methanesulfonyl-4-methoxy-phenyl)-4-(1-trifluoromethyl-cyclopropylamino)-pyrido[3,2-d]pyrimidin-2-ylamino]-methyl}-benzenesulfonamide] | < 100 | 1000 to 10000 | – |
| c1ncn(-c2ccc(CNc3nc(OC4CC4)c4nc(-c5cnc(OC6CC6)nc5)ccc4n3)cc2)n1 [Example 254, N-(4-(1H-1,2,4-triazol-1-yl)benzyl)-4-cyclopropoxy-6-(2-cyclopropoxypyrimidin-5-yl)pyrido[3,2-d]pyrimidin-2-amine] | < 100 | > 10000 | – |
| NS(=O)(=O)c1ccc(CNc2nc(NC3(C(F)(F)F)CC3)c3nc(-c4ccc(F)nc4)ccc3n2)cc1 [Example 96, 4-((6-(6-fluoropyridin-3-yl)-4-(1-(trifluoromethyl)cyclopropyl-amino)pyrido[3,2-d]pyrimidin-2-ylamino)methyl)benzene-sulfonamide] | < 100 | 1000 to 10000 | – |
| C[C@@H](Nc1nc(NCC(F)(F)F)c2nc(C#CC(C)(C)O)ccc2n1)c1ccc(S(N)(=O)=O)cc1 [Example 276, (R)-4-(1-(6-(3-hydroxy-3-methylbut-1-ynyl)-4-(2,2,2-trifluoroethylamino)pyrido [3,2-d]pyrimidin-2-ylamino)ethyl)benzenesulfonamide] | 250 to 2000 | > 10000 | – |
| N#Cc1cc(F)ccc1-c1ccc2nc(NCc3cc(Cl)cc(S(N)(=O)=O)c3)nc(NC3(C(F)(F)F)CC3)c2n1 [Example 100, 3-chloro-5-((6-(2-cyano-4-fluorophenyl)-4-(1-(trifluoromethyl)cyclopropyl-amino)pyrido[3,2-d]pyrimidin-2-ylamino)methyl)benzene-sulfonamide] | < 100 | 1000 to 10000 | – |
| FC(F)Oc1ccc(-c2ccc3nc(NCc4ccc(-n5cncn5)cc4)nc(NCC(F)(F)F)c3n2)cn1 [Example 245, N^2-(4-(1H-1,2,4-triazol-1-yl)benzyl)-6-(6-(difluoro-methoxy)pyridin-3-yl)-N^4-(2,2,2-trifluoroethyl)pyrido [3,2-d]pyrimidine-2,4-diamine] | < 100 | > 10000 | – |
| CC1(Oc2nc(NCc3ccc(-n4cncn4)cc3)nc3ccc(-c4ccc(OC5CCC5)nc4)nc23)CC1 [Example 249, N-(4-(1H-1,2,4-triazol-1-yl)benzyl)-6-(6-cyclobutoxy-pyridin-3-yl)-4-(1-methylcyclo-propoxy)pyrido[3,2-d] pyrimidin-2-amine] | < 100 | 1000 to 10000 | – |
| C[C@@H](Cn1cncn1)Nc1nc(NCC(F)(F)F)c2nc(-c3cccc(S(C)(=O)=O)c3)ccc2n1 [Example 169, N^2-((S)-1-(1H-1,2,4-triazol-1-yl)propan-2-yl)-6-(3-(methylsulfonyl)phenyl)-N^4-(2,2,2-trifluoroethyl)pyrido [3,2-d]pyrimidine-2,4-diamine] | 250 to 2000 | > 10000 | – |
| COCC#Cc1ccc2nc(NCc3cc(Cl)cc(S(N)(=O)=O)c3)nc(NC3(C(F)(F)F)CC3)c2n1 [Example 46, 3-chloro-5-((6-(3-methoxyprop-1-ynyl)-4-(1-(trifluoromethyl)cyclopropyl-amino)pyrido[3,2-d]pyrimidin-2-ylamino)methyl)benzene-sulfonamide] | < 100 | > 10000 | – |
| CCS(=O)(=O)c1cccc(-c2ccc3nc(NCc4ccc(-n5cncn5)cc4)nc(NCC(F)(F)F)c3n2)c1 [Example 181, N^2-(4-(1H-1,2,4-triazol-1-yl)benzyl)-6-(3-(ethylsulfonyl)phenyl)-N^4-(2,2,2-trifluoroethyl)pyrido [3,2-d]pyrimidine-2,4-diamine] | < 100 | > 10000 | – |
| COCc1ccc(-c2ccc3nc(NCc4ccc(S(N)(=O)=O)cc4)nc(NCC(F)(F)F)c3n2)cc1S(C)(=O)=O [Example 146, 4-((6-(4-(methoxymethyl)-3-(methylsulfonyl)phenyl)-4-(2,2,2-trifluoroethylamino)pyrido[3,2-d]pyrimidin-2-ylamino)methyl)benzene-sulfonamide] | < 100 | > 10000 | – |
| CCOc1ccc(-c2ccc3nc(N[C@H](C)c4ccc(S(N)(=O)=O)cc4)nc(NCC(F)(F)F)c3n2)cc1S(N)(=O)=O [Example 261, 4-((R)-1-(6-(4-ethoxy-3-(aminosulfonyl)phenyl)-4-(2,2,2-trifluoroethylamino)pyrido[3,2-d]pyrimidin-2-ylamino)ethyl)benzene-sulfonamide] | < 100 | > 10000 | – |
| CC1(Oc2nc(NCc3ccc(-n4cncn4)cc3)nc3ccc(-c4cccc(S(C)(=O)=O)c4)nc23)CC1 [Example 189, N-(4-(1H-1,2,4-triazol-1-yl)benzyl)-4-(1-methylcyclo-propoxy)-6-(3-(methylsulfonyl)phenyl)pyrido[3,2-d]pyrimidin-2-amine] | < 100 | 1000 to 10000 | – |
| Cc1ccc(-c2ccc3nc(NCc4cccc(S(C)(=O)=O)c4)nc(NC4(C(F)(F)F)CC4)c3n2)cc1S(C)(=O)=O [Example 34, N^2-(3-(methylsulfonyl)benzyl)-6-(4-methyl-3-(methylsulfonyl)phenyl)-N^4-(1-(trifluoromethyl)cyclopropyl) pyrido[3,2-d]pyrimidine-2,4-diamine] | < 100 | 1000 to 10000 | – |
| C[C@@H](Nc1nc(NCC(F)(F)F)c2nc(C#Cc3cncs3)ccc2n1)c1ccc(S(N)(=O)=O)cc1 [Example 297, (R)-4-(1-(6-(2-(thiazol-5-yl)ethynyl)-4-(2,2,2-trifluoro-ethylamino)pyrido[3,2-d]pyrimidin-2-ylamino)ethyl) benzenesulfonamide] | 250 to 2000 | > 10000 | – |
| CS(=O)(=O)c1cccc(-c2ccc3nc(NCc4ccc(-n5cccn5)cc4)nc(NCC(F)(F)F)c3n2)c1 [Example 167, N^2-(4-(1H-pyrazol-1-yl)benzyl)-6-(3-(methylsulfonyl)phenyl)-N^4-(2,2,2-trifluoroethyl)pyrido [3,2-d]pyrimidine-2,4-diamine] | < 100 | > 10000 | – |
| C[C@@H](Nc1nc(NC2(C(F)(F)F)CC2)c2nc(C#CC3CC3)ccc2n1)c1ccc(S(N)(=O)=O)cc1 [Example 69, (R)-4-(1-(6-(2-cyclopropylethynyl)-4-(1-(trifluoromethyl)cyclopropyl-amino)pyrido[3,2-d]pyrimidin-2-ylamino)ethyl)benzene-sulfonamide] | < 100 | > 10000 | – |
| Cc1cc(CNc2nc(NC3(C(F)(F)F)CC3)c3nc(-c4ccc(F)cc4)ccc3n2)cc(S(N)(=O)=O)c1 [Example 82, 3-((6-(4-fluorophenyl)-4-(1-(trifluoromethyl)cyclopropyl-amino)pyrido[3,2-d]pyrimidin-2-ylamino)methyl)-5-methylbenzenesulfonamide] | < 100 | > 10000 | – |
| COc1ccc(-c2ccc3nc(NCc4cccc(C(F)(F)F)c4)nc(NC4(C(F)(F)F)CC4)c3n2)cc1S(C)(=O)=O [Example 113, N^2-(3-(trifluoromethyl)benzyl)-6-(4-methoxy-3-(methylsulfonyl)phenyl)-N^4-(1-(trifluoromethyl)cyclopropyl)pyrido[3,2-d] pyrimidine-2,4-diamine] | 100 to 250 | > 10000 | – |
| NS(=O)(=O)c1cc(F)cc(CNc2nc(NC3(C(F)(F)F)CC3)c3nc(-c4ccc(F)nc4)ccc3n2)c1 [Example 77, 3-fluoro-5-((6-(6-fluoropyridin-3-yl)-4-(1-(trifluoromethyl)cyclopropylamino)pyrido[3,2-d]pyrimidin-2-ylamino)methyl) benzenesulfonamide] | < 100 | > 10000 | – |
| NS(=O)(=O)c1cc(Cl)cc(CNc2nc(NC3(C(F)(F)F)CC3)c3nc(-c4ccc(F)nc4)ccc3n2)c1 [Example 90, 3-chloro-5-((6-(6-fluoropyridin-3-yl)-4-(1-(trifluoromethyl)cyclopropyl-amino)pyrido[3,2-d]pyrimidin-2-ylamino)methyl)benzene-sulfonamide] | < 100 | > 10000 | – |

From patent US8536187B2 (Gilead Sciences, Inc., priority 2008, dated 2013)
